Where “and” joins values, the source holds several entries; their conditions need not be identical. Equal entries are not always repeated. Inconclusive results and toxic doses are left out. Rule for the calls: active = survival T/C of 150% or more; inactive = T/C below 125% in these data.
Tested on: BDF1 mice, P388 leukemia ip, median survival T/C
Assay: NCI In Vivo Anticancer Drug Screen. Data for tumor model P388 Leukemia (intraperitoneal) in B6D2F1 (BDF1) mice
Settings: endpoint: median survival time, higher = longer survival
In short: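 T/C = treated-group survival ÷ vehicle-control survival; tumour transplanted into mice before dosing.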

[1] = dose: 50.0 mg/kg/injection, schedule: Q01DX009 (ip), vehicle: saline with Tween-80
[2] = dose: 100.0 mg/kg/injection, schedule: Q01DX009 (ip), vehicle: saline with Tween-80
[3] = dose: 200.0 mg/kg/injection, schedule: Q01DX009 (ip), vehicle: saline with Tween-80
[4] = dose: 100.0 mg/kg/injection, schedule: Q04DX003 (ip), vehicle: saline with Tween-80
[5] = dose: 200.0 mg/kg/injection, schedule: Q04DX003 (ip), vehicle: saline with Tween-80
[6] = dose: 400.0 mg/kg/injection, schedule: Q01DX009 (ip), vehicle: saline with Tween-80
[7] = dose: 400.0 mg/kg/injection, schedule: Q04DX003 (ip), vehicle: saline with Tween-80
[8] = dose: 50.0 mg/kg/injection, schedule: Q04DX003 (ip), vehicle: saline with Tween-80
[9] = dose: 25.0 mg/kg/injection, schedule: Q01DX009 (ip), vehicle: saline with Tween-80
[10] = dose: 25.0 mg/kg/injection, schedule: Q04DX003 (ip), vehicle: saline with Tween-80
[11] = dose: 100.0 mg/kg/injection, schedule: Q04DX003 (ip), vehicle: saline
[12] = dose: 100.0 mg/kg/injection, schedule: Q04DX002 (ip), vehicle: saline with Tween-80
[13] = dose: 200.0 mg/kg/injection, schedule: Q04DX002 (ip), vehicle: saline with Tween-80
[14] = dose: 400.0 mg/kg/injection, schedule: Q04DX002 (ip), vehicle: saline with Tween-80
[15] = dose: 50.0 mg/kg/injection, schedule: Q01DX009 (ip), vehicle: saline
[16] = dose: 100.0 mg/kg/injection, schedule: Q01DX009 (ip), vehicle: saline
[17] = dose: 6.25 mg/kg/injection, schedule: Q01DX009 (ip), vehicle: saline with Tween-80
[18] = dose: 12.5 mg/kg/injection, schedule: Q01DX009 (ip), vehicle: saline with Tween-80

Measured: T/C

CC(=O)Oc1ccc2c(c1)CCC1C2CCC2(C)C1CCC21CO1 (stereo not given)
inactive: [1] 90 % of control | [2] 97 % of control | [3] 98 % of control

COc1ccc2c(c1)CC[C@@H]1[C@@H]2CC[C@@]2(C)[C@H]1CC[C@@]2(O)C(F)=C(F)F
inactive: [1] 118 % of control | [2] 113 % of control | [3] 104 % of control

O=[N+]([O-])c1cnc2ccnn2c1
inactive: dose: 12.5 mg/kg/injection, schedule: Q01DX009 (ip), vehicle: Klucel (hydroxypropylcellulose) (HPC) 100 % of control | dose: 25.0 mg/kg/injection, schedule: Q01DX009 (ip), vehicle: Klucel (hydroxypropylcellulose) (HPC) 100 % of control | dose: 50.0 mg/kg/injection, schedule: Q01DX009 (ip), vehicle: Klucel (hydroxypropylcellulose) (HPC) 100 % of control | dose: 100.0 mg/kg/injection, schedule: Q01DX009 (ip), vehicle: Klucel (hydroxypropylcellulose) (HPC) 95 % of control

Cc1ccc(C(C#N)Nc2ccccc2)cc1 (stereo not given)
inactive: [2] 100 % of control | [4] 100 % of control | [3] 115 % of control | [5] 100 % of control | [6] 100 % of control | [7] 104 % of control

COc1cccc(/C(C)=N\Nc2ccc([N+](=O)[O-])cc2[N+](=O)[O-])c1OC
inactive: [1] 94 % of control | [8] 100 % of control | [2] 100 % of control | [4] 102 % of control | [3] 91 % of control | [5] 102 % of control | [6] 94 % of control | [7] 97 % of control

CC(=O)Nc1ccc2c(c1)C[N+](C)(C1CCCCC1)CO2 (stereo not given)
inactive: [9] 109 % of control | [10] 95 % of control | [1] 109 % of control | [8] 91 % of control | [4] 95 % of control

CCN(CC)C(=O)c1ccncc1
inactive: [11] 109 % of control | dose: 200.0 mg/kg/injection, schedule: Q04DX003 (ip), vehicle: saline 100 % of control

O=C1CC2(C(=O)N1CN(Cc1ccccc1)Cc1ccccc1)c1ccccc1-c1ccccc12
inactive: [12] 87 % of control | [13] 86 % of control | [14] 93 % of control

C1CCCC(NC2=NCCO2)CCC1
inactive: dose: 6.25 mg/kg/injection, schedule: Q04DX003 (ip), vehicle: saline with Tween-80 100 % of control | dose: 12.5 mg/kg/injection, schedule: Q04DX003 (ip), vehicle: saline with Tween-80 109 % of control | [10] 95 % of control

CN(C)Cc1c[nH]c2nccnc12
inactive: dose: 3.12 mg/kg/injection, schedule: Q01DX009 (ip), vehicle: saline 95 % of control | dose: 6.25 mg/kg/injection, schedule: Q01DX009 (ip), vehicle: saline 109 % of control | dose: 12.5 mg/kg/injection, schedule: Q01DX009 (ip), vehicle: saline 101 % of control | dose: 25.0 mg/kg/injection, schedule: Q01DX009 (ip), vehicle: saline 93 % of control | dose: 25.0 mg/kg/injection, schedule: Q04DX003 (ip), vehicle: saline 99 % of control | [15] 100 % of control | dose: 50.0 mg/kg/injection, schedule: Q04DX003 (ip), vehicle: saline 100 % of control and 101 % of control | [16] 100 % of control | [11] 92 % of control and 100 % of control

CCCC(O)C(C)(C)[N+](=O)[O-] (stereo not given)
inactive: [17] 99 % of control | [18] 89 % of control

O=C(CSCC(=O)c1ccc(Br)cc1)c1ccc(Br)cc1
inactive: dose: 100.0 mg/kg/injection, schedule: Q01DX001 (ip), vehicle: Klucel (hydroxypropylcellulose) (HPC) 100 % of control | dose: 200.0 mg/kg/injection, schedule: Q01DX001 (ip), vehicle: Klucel (hydroxypropylcellulose) (HPC) 100 % of control | dose: 400.0 mg/kg/injection, schedule: Q01DX001 (ip), vehicle: Klucel (hydroxypropylcellulose) (HPC) 100 % of control

COC1(c2ccco2)OC1(C)C (stereo not given)
inactive: dose: 5.0 mg/kg/injection, schedule: Q01DX009 (ip), vehicle: Klucel (hydroxypropylcellulose) (HPC) 86 % of control | dose: 5.0 mg/kg/injection, schedule: Q04DX003 (ip), vehicle: saline 109 % of control | dose: 10.0 mg/kg/injection, schedule: Q01DX009 (ip), vehicle: Klucel (hydroxypropylcellulose) (HPC) 86 % of control | dose: 10.0 mg/kg/injection, schedule: Q04DX003 (ip), vehicle: saline 109 % of control | dose: 20.0 mg/kg/injection, schedule: Q01DX009 (ip), vehicle: Klucel (hydroxypropylcellulose) (HPC) 90 % of control | dose: 20.0 mg/kg/injection, schedule: Q04DX003 (ip), vehicle: saline 104 % of control

Cc1nnc2ncccn12
inactive: [15] 96 % of control and 102 % of control and 106 % of control | [16] 97 % of control and 102 % of control (2×) | dose: 200.0 mg/kg/injection, schedule: Q01DX009 (ip), vehicle: saline 115 % of control | dose: 400.0 mg/kg/injection, schedule: Q01DX009 (ip), vehicle: saline 93 % of control

CCOC(=O)C/C(C)=N/NC(=O)C(=O)N/N=C(\C)CC(=O)OCC
inactive: dose: 75.0 mg/kg/injection, schedule: Q01DX009 (ip), vehicle: saline with Tween-80 113 % of control | dose: 150.0 mg/kg/injection, schedule: Q01DX009 (ip), vehicle: saline with Tween-80 96 % of control | dose: 300.0 mg/kg/injection, schedule: Q01DX009 (ip), vehicle: saline with Tween-80 96 % of control

COc1cc2ccc(CC(=O)NCCc3ccc4c(c3)OCO4)cc2cc1OC
inactive: dose: 100.0 mg/kg/injection, schedule: Q04DX003 (ip), vehicle: Klucel (hydroxypropylcellulose) (HPC) 100 % of control | dose: 200.0 mg/kg/injection, schedule: Q04DX003 (ip), vehicle: Klucel (hydroxypropylcellulose) (HPC) 90 % of control | dose: 400.0 mg/kg/injection, schedule: Q04DX003 (ip), vehicle: Klucel (hydroxypropylcellulose) (HPC) 90 % of control

CC(=N\O)/C(C)=N/O.CC(=N\O)/C(C)=N/O.O=C(O)C1CC[N-]CC1.O=C(O)C1CC[N-]CC1.O=C(O)C1CC[N-]CC1.O=C(O)C1CC[N-]CC1.[Cl-].[Cl-].[Cl][Rh][Cl].[Rh+3]
inactive: dose: 25.0 mg/kg/injection, schedule: Q01DX009 (ip), vehicle: water 100 % of control | dose: 50.0 mg/kg/injection, schedule: Q01DX009 (ip), vehicle: water 94 % of control | dose: 200.0 mg/kg/injection, schedule: Q01DX009 (ip), vehicle: water 94 % of control | dose: 400.0 mg/kg/injection, schedule: Q01DX009 (ip), vehicle: water 88 % of control

C/C=C/C(=O)NCC(C(C)C)/[N+]([O-])=N/O (stereo not given)
inactive: [17] 104 % of control | [18] 116 % of control | [9] 87 % of control

CCCCCCCCCCCC1=NC(CO)(CO)CO1
inactive: dose: 100.0 mg/kg/injection, schedule: Q01DX001 (ip), vehicle: saline with Tween-80 100 % of control | dose: 200.0 mg/kg/injection, schedule: Q01DX001 (ip), vehicle: saline with Tween-80 104 % of control | dose: 400.0 mg/kg/injection, schedule: Q01DX001 (ip), vehicle: saline with Tween-80 100 % of control

Cc1ccc(C(=Nc2ccccc2)c2ccccc2C)cc1
inactive: [12] 88 % of control and 100 % of control | [13] 91 % of control | [14] 86 % of control
